Experimental data from ChEMBL document CHEMBL4813922, “Discovery of a novel small-molecule inhibitor of Fam20C that induces apoptosis and inhibits migration in triple negative breast cancer” (Eur J Med Chem, 2021).
Values belong to the compound of their own block, whether it stands above or below them. Activity calls are given as the source filed them. The rule behind the calls is not given here.

What was measured:
[1] = target: T1, Extracellular serine/threonine protein kinase FAM20C (Homo sapiens) (UniProt Q8IXL6); assay: Inhibition of Fam20C (unknown origin) assessed as reduction in inorganic phosphate release in presence of ATP at 10 uM measured by Malachite green phosphate staining based micro plate reader assay relative to control
T1 sequence (whole entry): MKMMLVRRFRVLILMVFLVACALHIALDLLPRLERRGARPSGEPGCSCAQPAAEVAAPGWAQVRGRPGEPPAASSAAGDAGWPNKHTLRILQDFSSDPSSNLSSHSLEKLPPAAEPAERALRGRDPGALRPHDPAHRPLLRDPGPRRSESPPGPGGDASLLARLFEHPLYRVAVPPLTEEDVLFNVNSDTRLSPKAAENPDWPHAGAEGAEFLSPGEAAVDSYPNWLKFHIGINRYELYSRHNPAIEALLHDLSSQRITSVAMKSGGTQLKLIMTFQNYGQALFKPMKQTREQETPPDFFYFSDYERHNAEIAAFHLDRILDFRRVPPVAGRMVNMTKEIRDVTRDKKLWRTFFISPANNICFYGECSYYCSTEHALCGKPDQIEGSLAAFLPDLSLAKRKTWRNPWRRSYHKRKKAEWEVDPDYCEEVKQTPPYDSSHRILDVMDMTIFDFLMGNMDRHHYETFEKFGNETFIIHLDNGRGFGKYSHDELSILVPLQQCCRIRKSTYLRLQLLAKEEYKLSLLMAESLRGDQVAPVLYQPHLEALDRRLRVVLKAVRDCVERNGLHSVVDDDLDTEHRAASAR

MCF7 = assay: Antiproliferative activity against human MCF7 cells measured by MTT assay; type: functional, cell-based
MDA-MB-468 = assay: Antiproliferative activity against human MDA-MB-468 cells measured by MTT assay; type: functional, cell-based
MDA-MB-231 [2] = assay: Antiproliferative activity against human MDA-MB-231 cells measured by MTT assay; type: functional, cell-based
MDA-MB-231 [3] = assay: Induction of apoptosis in human MDA-MB-231 cells assessed as late apoptotic cells at 2.5 uM measured after 24 hrs by Annexin V-FITC/PI staining based flow cytometry (reference value: 3.02%); type: functional
MDA-MB-231 [4] = assay: Antitumour activity against human MDA-MB-231 cells xenografted in Balb/c mouse assessed as decrease in Ki-67 expression in tumor at 50 mg/kg, ig measured after 14 days by immunohistochemistry method; type: functional, organism-based; details: time 14.0 day
MDA-MB-231 [5] = assay: Induction of apoptosis in human MDA-MB-231 cells assessed as upregulation of cleaved caspase 3 level at 2.5 to 5 uM measured after 24 hrs by western blot assay; type: functional, cell-based; details: dose 2.5-5 µM
MDA-MB-231 [6] = assay: Antitumour activity against human MDA-MB-231 cells xenografted in Balb/c mouse assessed as increase in cleaved caspase 3 level in tumor at 25 to 50 mg/kg, ig measured after 14 days by western blot method; type: functional, organism-based; details: dose 25-50 mg/kg, time 14.0 day
[7] = Toxicity in Balb/c mouse xenografted with human MDA-MB-231 cells assessed as changes in body weight at 25 mg/kg, ig measured after 14 days; type: organism-based; details: in vivo, po, 336 h, time 14 day
MDA-MB-231 [8] = assay: Induction of apoptosis in human MDA-MB-231 cells assessed as upregulation of Bax protein expression at 2.5 to 5 uM measured after 24 hrs by western blot assay; type: functional, cell-based; details: dose 2.5-5 µM
[9] = target: T2, Extracellular serine/threonine protein kinase FAM20C (Homo sapiens, UniProt Q8IXL6); assay: Inhibition of Fam20C (unknown origin) assessed as reduction in inorganic phosphate release in presence of ATP measured by Malachite green phosphate staining based micro plate reader assay
T2 sequence (Q8IXL6 whole entry): T1 sequence (whole entry)

MDA-MB-231 [10] = assay: Inhibition of cell migration in human MDA-MB-231 cells assessed as downregulation of MMP-2 protein expression at 2.5 to 5 uM measured after 24 hrs by western blot assay; type: functional, cell-based; details: dose 2.5-5 µM
MDA-MB-231 [11] = assay: Induction of apoptosis in human MDA-MB-231 cells assessed as viable cells at 2.5 uM measured after 24 hrs by Annexin V-FITC/PI staining based flow cytometry (reference value: 94.3%); type: functional; details: read-out: Activity
MDA-MB-231 [12] = assay: Inhibition of cell migration in human MDA-MB-231 cells assessed as upregulation of E-cadherin protein expression at 2.5 to 5 uM measured after 24 hrs by western blot assay; type: functional, cell-based; details: dose 2.5-5 µM
MDA-MB-231 [13] = assay: Induction of apoptosis in human MDA-MB-231 cells assessed as early apoptotic cells at 5 uM measured after 24 hrs by Annexin V-FITC/PI staining based flow cytometry (reference value: 2%); type: functional
MDA-MB-231 [14] = assay: Antitumour activity against human MDA-MB-231 cells xenografted in Balb/c mouse assessed as reduction in tumor weight at 25 to 50 mg/kg, ig for 14 days; type: functional, organism-based; details: dose 25-50 mg/kg, time 14.0 day
MDA-MB-231 [15] = assay: Induction of apoptosis in human MDA-MB-231 cells assessed as late apoptotic cells at 5 uM measured after 24 hrs by Annexin V-FITC/PI staining based flow cytometry (reference value: 3.02%); type: functional
[16] = Toxicity in Balb/c mouse xenografted with human MDA-MB-231 cells assessed as changes in body weight at 50 mg/kg, ig measured after 14 days; type: organism-based; details: in vivo, po, 336 h, time 14 day
MDA-MB-231 [17] = assay: Antitumour activity against human MDA-MB-231 cells xenografted in Balb/c mouse assessed as upregulation of Bax protein expression in tumor at 25 to 50 mg/kg, ig measured after 14 days by western blot method; type: functional, organism-based; details: dose 25-50 mg/kg, time 14.0 day
MCF-10A = assay: Cytotoxicity against human MCF-10A cells assessed as inhibition of cell proliferation at 0.625 to 40 uM measured by MTT assay; type: cell-based; details: dose 0.625-40 µM
MDA-MB-231 [18] = assay: Induction of apoptosis in human MDA-MB-231 cells assessed as viable cells at 5 uM measured after 24 hrs by Annexin V-FITC/PI staining based flow cytometry (reference value: 94.3%); type: functional; details: read-out: Activity
MDA-MB-231 [19] = assay: Inhibition of cell migration in human MDA-MB-231 cells assessed as upregulation of E-cadherin protein expression at 2.5 uM measured after 24 hrs by immunofluorescence assay; type: functional, cell-based
MDA-MB-231 [20] = assay: Inhibition of cell migration in human MDA-MB-231 cells at 2.5 uM measured after 12 hrs by Transwell assay; type: functional, cell-based
MDA-MB-231 [21] = assay: Inhibition of colony formation in human MDA-MB-231 cells at 5 uM measured after 2 weeks by crystal violet staining based analysis; type: functional, cell-based
MDA-MB-231 [22] = assay: Induction of apoptosis in human MDA-MB-231 cells assessed as downregulation of Bcl-2 protein expression at 2.5 to 5 uM measured after 24 hrs by western blot assay; type: functional, cell-based; details: dose 2.5-5 µM
MDA-MB-231 [23] = assay: Induction of apoptosis in human MDA-MB-231 cells assessed as early apoptotic cells at 2.5 uM measured after 24 hrs by Annexin V-FITC/PI staining based flow cytometry (reference value: 2%); type: functional
MDA-MB-231 [24] = assay: Induction of apoptosis in human MDA-MB-231 cells assessed as necrotic cells at 5 uM measured after 24 hrs by Annexin V-FITC/PI staining based flow cytometry (reference value: 0.64%); type: functional
MDA-MB-231 [25] = assay: Antitumour activity against human MDA-MB-231 cells xenografted in Balb/c mouse assessed as reduction in tumor volume at 25 to 50 mg/kg, ig for 14 days; type: functional, organism-based; details: dose 25-50 mg/kg, time 14.0 day
MDA-MB-231 [26] = assay: Inhibition of cell migration in human MDA-MB-231 cells assessed as downregulation of MMP-2 protein expression at 2.5 uM measured after 24 hrs by immunofluorescence assay; type: functional, cell-based
MDA-MB-231 [27] = assay: Antitumour activity against human MDA-MB-231 cells xenografted in Balb/c mouse assessed as downregulation of Bcl-2 protein expression in tumor at 25 to 50 mg/kg, ig measured after 14 days by western blot method; type: functional, organism-based; details: dose 25-50 mg/kg, time 14.0 day
MDA-MB-231 [28] = assay: Induction of apoptosis in human MDA-MB-231 cells assessed as DNA condensation measured after 24 hrs by Hoechst 33258 staining based flourescence microscopic analysis; type: functional, cell-based
MDA-MB-231 [29] = assay: Induction of apoptosis in human MDA-MB-231 cells assessed as necrotic cells at 2.5 uM measured after 24 hrs by Annexin V-FITC/PI staining based flow cytometrY (reference value: 0.64%); type: functional
MDA-MB-231 [30] = assay: Inhibition of cell migration in human MDA-MB-231 cells assessed as decrease in wound closure at 2.5 uM measured after 24 hrs by scratch assay; type: functional, cell-based

inhibition [1]: 25% | IC50 (MCF7): 29 µM | IC50 (MDA-MB-468): 14.8 µM | IC50 (MDA-MB-231 [2]): 6.87 µM
Structure (SMILES): COc1ccc(Nc2ccnc(Nc3ccc(NS(=O)(=O)c4ccc(OC)cc4)cc3)n2)cc1

inhibition [1]: 18% | IC50 (MCF7): > 50 µM | IC50 (MDA-MB-468): > 50 µM | IC50 (MDA-MB-231 [2]): 27.8 µM
Structure (SMILES): Cc1ccc(S(=O)(=O)Nc2ccc(Nc3nc(Nc4ccc(F)cc4)cc(C(F)(F)F)n3)cc2)c(Cl)c1

inhibition [1]: 40% | IC50 (MCF7): > 50 µM | IC50 (MDA-MB-468): > 50 µM | IC50 (MDA-MB-231 [2]): 15.3 µM
Structure (SMILES): COc1ccc(Nc2cc(C)nc(Nc3ccc(NS(=O)(=O)c4ccccc4Cl)cc3)n2)cc1

inhibition [1]: 19% | IC50 (MCF7): 17.3 µM | IC50 (MDA-MB-468): 25.3 µM | IC50 (MDA-MB-231 [2]): 23.3 µM
Structure (SMILES): COc1ccc(Nc2cc(C(F)(F)F)nc(Nc3ccc(NS(=O)(=O)c4ccc(C(F)(F)F)cc4)cc3)n2)cc1

More lines, now with the values behind:

Structure (SMILES): O=S(=O)(Nc1ccc(Nc2nc(Nc3ccc(F)cc3)cc(C(F)(F)F)n2)cc1)c1ccccc1OC(F)(F)F
inhibition [1]: 24% | IC50 (MCF7): 16.7 µM | IC50 (MDA-MB-468): > 50 µM | IC50 (MDA-MB-231 [2]): 20.8 µM

Structure (SMILES): COc1ccc(Nc2ccnc(Nc3ccc(NS(=O)(=O)c4ccc(C(F)(F)F)cc4)cc3)n2)cc1
inhibition [1]: 18% | IC50 (MCF7): 34.8 µM | IC50 (MDA-MB-468): > 50 µM | IC50 (MDA-MB-231 [2]): 27.2 µM

Structure (SMILES): Cc1cc(Nc2ccc(F)cc2)nc(Nc2ccc(NS(=O)(=O)c3ccccc3OC(F)(F)F)cc2)n1
inhibition [1]: 23% | IC50 (MCF7): > 50 µM | IC50 (MDA-MB-468): 42.2 µM | IC50 (MDA-MB-231 [2]): 23.8 µM

Structure (SMILES): COc1ccc(C(=O)Nc2ccc(Nc3nccc(Nc4ccc(OC)cc4C)n3)cc2)cc1
inhibition [1]: 23% | IC50 (MCF7): > 50 µM | IC50 (MDA-MB-468): > 50 µM | IC50 (MDA-MB-231 [2]): 23.3 µM

Structure (SMILES): O=S(=O)(Nc1ccc(Nc2nc(Nc3ccc(F)cc3)cc(C(F)(F)F)n2)cc1)c1ccc(C(F)(F)F)cc1
inhibition [1]: 15% | IC50 (MCF7): 17.2 µM | IC50 (MDA-MB-468): > 50 µM | IC50 (MDA-MB-231 [2]): > 50 µM

Structure (SMILES): COc1cc(Nc2ccnc(Nc3ccc(NS(=O)(=O)c4ccc(C)cc4)cc3)n2)cc(OC)c1OC
inhibition [1]: 28% | IC50 (MCF7): > 50 µM | IC50 (MDA-MB-468): 46.8 µM | IC50 (MDA-MB-231 [2]): 17.3 µM

Structure (SMILES): COc1ccc(S(=O)(=O)Nc2ccc(Nc3nccc(Nc4cc(OC)c(OC)c(OC)c4)n3)cc2)cc1
Activity (MDA-MB-231 [3]): 15.3% | Activity (MDA-MB-231 [4]): Active | Activity (MDA-MB-231 [5]): Active | Activity (MDA-MB-231 [6]): Active | Activity [7]: Non-Toxic | Activity (MDA-MB-231 [8]): Active | inhibition [1]: 68% | IC50 [9]: 6.24 µM | inhibition (MDA-MB-231 [10]): Active | viability at 2.5 µM (MDA-MB-231 [11]): 70.8% | IC50 (MCF7): 9.7 µM | inhibition (MDA-MB-231 [12]): Active | Activity (MDA-MB-231 [13]): 15.9% | Activity (MDA-MB-231 [14]): Active | Activity (MDA-MB-231 [15]): 33.2% | Activity [16]: Non-Toxic | Activity (MDA-MB-231 [17]): Active | Activity (MCF-10A): Non-Toxic | viability at 5 µM (MDA-MB-231 [18]): 42% | inhibition (MDA-MB-231 [19]): Active | IC50 (MDA-MB-468): 10.3 µM | inhibition (MDA-MB-231 [20]): Active | inhibition (MDA-MB-231 [21]): Active | Activity (MDA-MB-231 [22]): Active | Activity (MDA-MB-231 [23]): 10.7% | IC50 (MDA-MB-231 [2]): 5.99 µM | Activity (MDA-MB-231 [24]): 8.89% | Activity (MDA-MB-231 [25]): Active | inhibition (MDA-MB-231 [26]): Active | Activity (MDA-MB-231 [27]): Active | Activity (MDA-MB-231 [28]): Active | Activity (MDA-MB-231 [29]): 3.23% | inhibition (MDA-MB-231 [30]): Active
